In US11490622B2, “Substituted heterocycles as harmful arthropod controlling agents” (SUMITOMO CHEMICAL COMPANY, LIMITED, priority 2017, dated 2022):

Assays:
[1] = tested on: tobacco cutworms (Spodoptera litura); test: Test method 3: sprayed cabbage seedling, tobacco cutworm larvae; type: in vivo; details: 120 h, sprayed 20 mL/seedling on cabbage, second instar larvae, after 5 days, 25° C., read-out: mortality of insects
Method: Test compounds are made to a formulation according to a similar method to that described in the Formulation example 5, and thereto is added water containing 0.03 v/v % of Shindain (registered trademark) to prepare a diluted solution containing a prescribed concentration of the test compound.
Cabbage (Brassicae oleracea) seedling (on the developmental stage of the second to third true leaf) is planted in a cup, and the diluted solutions are sprayed into the seedling at a ratio of 20 mL/seedling. Thereafter, the stem and leaf thereof is cut out and then is installed into a cup that is covered with filter paper on the bed of the cup. Five (5) tobacco cutworms (Spodoptera litura) at the second instar larval stage are released into the cup. After 5 days, the number of the surviving insects is counted, and the mortality of insects is calculated by the following equation. Mortality (%)=(1−Number of surviving insects/5)×100
Present compound Nos: 1, 3, 4, 6 to 12, 23, 25 to 30, 32, 35 to 43, 47 to 49, 92, 93, 97, and 107

[2] = tested on: Western corn rootworms (Diabrotica virgifera virgifera); test: Test method 5: corn seedling immersed in diluted solution, Western corn rootworm larvae; type: in vivo; details: 120 h, corn seedling immersed 30 seconds, second instar larvae, after 5 days, 25° C., read-out: mortality of insects
Method: Each 1 mg of the test compounds is dissolved into 50 μL of a mixed solution of polyoxyethylene sorbitan mono-cocoate and acetone (polyoxyethylene sorbitan mono-cocoate:acetone=5:95 (v/v ratio)). Thereto is added water containing 0.03% by volume of Shindain (registered trademark) to prepare a diluted solution containing a prescribed concentration of the test compound.
A young entire seedling of Corns (Zea mays) is immersed into the diluted solution for 30 seconds. Thereafter, each two grains of the seedlings are installed in a plastic petri dish ([…]), and 10 Western corn rootworms (Diabrotica virgifera virgifera) at the second instar larval stage are released into the dish. After 5 days, the number of the dead insects is counted, and the mortality of insects is calculated by the following equation. Mortality (%)={Number of dead insects/10}×100
Present compound Nos: 1, 4, 7, 9 to 13, 23, 24, 26 to 29, 32, 33, 35, 38, 39, 41, 43, 44, 47, 48, 59, 60, 62, 63, 67 to 70, 73 to 83, and 96

Compound: CCSc1c(-c2ccc(OCC(F)(F)C(F)(F)F)n(C)c2=O)nc2ccc(C(F)(F)F)cn12 [compound 1]
- mortality at 500 ppm [1]: ≥ 80%
- mortality at 500 ppm [2]: ≥ 80%
